Positions of bridges follow the written chain, without caps; N, C: chain ends. Non-standard residues stand in square brackets, D forms with d. Residues, ends and D or L forms follow the SMILES beside them. Nle = CCCC[C@H](N)C(=O)O
How the values were obtained:
[1] = system: CD8+ cells of MS patients; test: Transwell migration assay with PBMC of MS patients, CD8+ cells; assay type: cell-based, human; conditions: PBMC of treatment-naive MS patients; too few cells to test significance
Procedure: (§1) 5 Activity of the novel VhTI-pep 2 and pepitem on patient lymphocytes. PPBMCs were isolated from the blood of MS patients with a very recent disease flare receiving no immunosuppressive or immunomodulatory treatment in the past. The effect of the linear pepitem and VhTI-pep 2 was tested for the T-cell populations (A) CD3^+, (B) Th1, (C) CD4^+, (D) memory CD4^+, (E) CD8^+, and (F) memory CD8^+ cells. Data are shown as mean ± SD for 4 independent measurements. Statistical analysis was performed on the level of total counted cells using repeated measures one-way ANOVA with Dunnett’s post hoc test. Statistical significance is indicated as n.s. (not significant), * p < 0.05; ** p < 0.01; *** p < 0.001.
(§2) Human microvascular endothelial cells (HMEC-1 cells, Cytion, Eppelheim, Germany) were cultured in MCDB-131 medium (with 2.2 g/L sodium bicarbonate, without L-glutamine, PAN-Biotech Aidenbach, Germany) supplemented with 10% fetal bovine serum (FBS, Capricorn Scientific, Ebsdorfergrund, Germany), 100 units/ml penicillin-streptomycin (Sigma-Aldrich) 10 ng/mL epidermal growth factor (BioLegend, San Diego, US), 1 μg/mL hydrocortisone (Sigma-Aldrich), and 10 mM L-glutamine (Sigma-Aldrich). For experiments, the cells were used between passage numbers 4–9. […]

[2] = system: CD3+ cells of MS patients; test: Transwell migration assay with PBMC of MS patients, CD3+ cells; assay type: cell-based, human; conditions: PBMC of treatment-naive MS patients; p = 0.0008; repeated measures one-way ANOVA, Dunnett
Procedure: as §1, §2

`CCCC[C@@H]1NC(=O)[C@H](C(C)C)NC(=O)[C@H](CCCCN)NC(=O)[C@@H](NC(=O)[C@H](CCC(N)=O)NC(=O)[C@H](CCC(=O)O)NC(C)=O)CSSC[C@@H](C(=O)N[C@@H](CCC(=O)O)C(=O)N[C@@H](CCCCN)C(N)=O)NC(=O)[C@H](CC(N)=O)NC(=O)[C@H](CC(=O)O)NC(=O)[C@H](CC(C)C)NC(=O)[C@@H]2CSSC[C@H](NC1=O)C(=O)N[C@@H](Cc1ccc(O)cc1)C(=O)N[C@@H](C)C(=O)N[C@@H](CCC(N)=O)C(=O)NCC(=O)N[C@@H](C)C(=O)N[C@@H](CCC(=O)O)C(=O)N[C@@H](CC(C)C)C(=O)N1CCC[C@H]1C(=O)N[C@@H](CCC(=O)O)C(=O)N[C@@H](CC(C)C)C(=O)N[C@@H](CC(C)C)C(=O)N[C@@H](CCCNC(=N)N)C(=O)N[C@@H](CCCNC(=N)N)C(=O)N2` [VhTI-pep 2] (Ac-EQCKV[Nle]CYAQGAELPELLRRCLDNCEK-NH2; disulfide 3-25, 7-21) was tested, and the “migration of CD8+ cells of MS patients (in words)” value [1] was “positive trend” and the “migration of CD3+ cells of MS patients (in words)” value [2] was “significantly reduced”.
